# Laboratory results from patent US20060223792A1, “Phenyl and pyridyl LTA4H modulators” (priority 2005, published 2006).
# Structures can show the parent of a compound that is named as a salt.
# Target: T1, recombinant human LTA4 hydrolase (rhLTA4H) (Homo sapiens, UniProt P09960)
# T1 construct: made in house; host or cells: Spodoptera frugiperda (Sf-9) cells, baculovirus (pFastBac1)
# T1 sequence (P09960 1-611): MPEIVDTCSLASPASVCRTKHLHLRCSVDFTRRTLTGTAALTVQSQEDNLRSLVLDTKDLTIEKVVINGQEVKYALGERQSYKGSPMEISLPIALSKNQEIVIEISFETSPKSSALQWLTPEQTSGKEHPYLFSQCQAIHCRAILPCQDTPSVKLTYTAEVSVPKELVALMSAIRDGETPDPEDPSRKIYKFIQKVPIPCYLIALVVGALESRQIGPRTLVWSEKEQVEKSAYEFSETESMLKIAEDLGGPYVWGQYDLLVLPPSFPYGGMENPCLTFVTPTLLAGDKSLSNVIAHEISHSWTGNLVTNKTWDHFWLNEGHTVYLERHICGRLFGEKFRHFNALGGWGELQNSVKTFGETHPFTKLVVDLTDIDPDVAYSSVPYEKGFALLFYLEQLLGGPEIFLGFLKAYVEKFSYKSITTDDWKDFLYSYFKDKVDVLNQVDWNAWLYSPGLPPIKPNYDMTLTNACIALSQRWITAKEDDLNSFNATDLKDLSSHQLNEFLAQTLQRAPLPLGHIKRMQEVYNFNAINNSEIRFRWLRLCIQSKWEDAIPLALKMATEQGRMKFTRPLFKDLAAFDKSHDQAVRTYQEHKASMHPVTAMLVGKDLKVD
# Experiment: Recombinant human LTA4 hydrolase assay for LTA4 hydrolase inhibitor activity
# Assay type: biochemical
# Conditions: not given
# Experimental: Recombinant Human LTA4 Hydrolase Assay for LTA4 Hydrolase Inhibitor Activity
# Compounds of the present invention were tested for LTA4 hydrolase inhibitor activity against recombinant human LTA4 hydrolase (rhLTA4H). Vectors were prepared and used to express rhLTA4H essentially as follows: LTA4 hydrolase encoding DNA was amplified by polymerase chain reaction (PCR) using a human placental cDNA library as a template. Oligonucleotide primers for the PCR reaction were based on the 5′-end, and the complement of the 3′-end, of the published nucleotide sequence for the coding region of the human LTA4 hydrolase gene (C. D. Funk et al., Proc. Natl. Acad. Sci. USA 1987, 84:6677-6681). The amplified […] DNA fragment encoding LTA4 hydrolase was isolated and cloned into the pFastBac1 vector (Invitrogen). Recombinant baculovirus was generated as described by the manufacturer, and used to infect Spodoptera frugiperda (Sf-9) cells. Recombinant LTA4 hydrolase enzyme was purified from the infected Sf-9 cells essentially as described by J. K. Gierse et al. (Protein Expr. Purif. 1993, 4(5):358-366). The purified enzyme solution was adjusted to contain 0.29 mg/mL LTA4 hydrolase, 50 mM Tris (pH 8.0),150 mM NaCl, 5 mM dithiothreitol, 50% glycerol, and EDTA-free Complete protease inhibitor cocktail (Roche). The specific activity of the enzyme was about 3.8 μmol/min/mg.
# LTA4 substrate was prepared from the methyl ester of LTA4 (Cayman Chemical) by treatment with 67 equiv. of NaOH under nitrogen at rt for 40 min. The LTA4 substrate in its free acid form was kept frozen at −80° C. until needed. Each compound was diluted to different concentrations in assay buffer (0.1 M potassium phosphate (pH 7.4), 5 mg/mL fatty acid free BSA) containing 10% DMSO. A 25-μL aliquot of each compound dilution was incubated for 10 min at rt with an equal volume of assay buffer containing 36 ng of recombinant human LTA4H. The solution was then adjusted to 200 μL with assay buffer. LTA4 (free acid) was thawed and diluted in assay buffer to a concentration of 357 ng/mL, and 25 μL (9 ng) of LTA4 substrate was added to the reaction mixture (total volume=225 μL) at time zero. Each reaction was carried out at rt for 10 min. The reaction was stopped by diluting 10 μL of the reaction mixture with 200 μL of assay buffer. LTB4 was quantifiedin the diluted sample by a commercially available enzyme-linked immunoassay (Cayman Chemical Co.), as recommended by the manufacturer. Positive controls, under essentially identical conditions but without addition of an inhibitor compound, and negative controls, containing all assay components except enzyme, were routinely run in each experiment. IC50 values were determined by fitting the activity data at different compound concentrations to a 4-parameter equation using the Grafit program (Erithacus software).
# The IC50 values presented in the table below should be expected to fall within the typical three-fold variability of assays of this type. The values presented here are, in general, an average of one to three determinations.
row,Compound,IC50
1,"O=C(Nc1ccc(OCCN2CCCCC2)cc1)Oc1ccccc1 [Example 14, [4-(2-Piperidin-1-yl-ethoxy)-phenyl]-carbamic acid phenyl ester hydrochloride]",1.79 µM
2,"CCCN(CCCc1ccc(OC(=O)Nc2ccccc2)cc1)CC1CC1 [Example 38, Phenyl-carbamic acid 4-[3-(cyclopropylmethyl-propyl-amino)-propyl]-phenyl ester hydrochloride]",0.006 µM

# Same assay, conditions: recombinant human LTA4H, LTB4 quantified by enzyme-linked immunoassay; average of one to three determinations; read-out: IC50
row,Compound,IC50
1,"CCOC(=O)C1CCN(CCOc2ccc(OC(=O)N(C)c3cccc(O)c3)cc2)CC1 [Example 8, 1-(2-{4-[(3-Hydroxy-phenyl)-methyl-carbamoyloxy]-phenoxy}-ethyl)-piperidine-4-carboxylic acid ethyl ester]",0.1 µM
2,"CN(C(=O)Oc1ccc(OCCN2CCC(C(=O)O)CC2)cc1)c1cccc(O)c1 [Example 9, 1-(2-{4-[(3—hydroxy-phenyl)-methyl-carbamoyloxy]-phenoxy}-ethyl)-piperidine-4-carboxylic acid]",0.389 µM
3,"CN(C)C(=O)Oc1ccc(OCCN2CCC(O)(c3ccccc3)CC2)cc1 [Example 10, Dimethyl-carbamic acid 4-[2-(4-hydroxy-4-phenyl-piperidin-1-yl)-ethoxy]-phenyl ester]",0.052 µM
4,"O=C(Nc1ccccc1)OCc1ccc(OCCN2CCCCC2)cc1 [Example 16, Phenyl-carbamic acid 4-(2-piperidin-1-yl-ethoxy)-benzyl ester]",0.352 µM
5,"O=C(Nc1ccccc1)Oc1ccc(CCN2CCC(O)(c3ccccc3)CC2)cc1 [Example 17, Phenyl-carbamic acid 4-[2-(4-hydroxy-4-phenyl-piperidin-1-yl)-ethyl]-phenyl ester]",0.033 µM
6,"CCOC(=O)C1CCCN(C2CCN(CCc3ccc(OCCc4ccccc4)cc3)CC2)C1 (centres unmarked) [Example 18, 1′-[2-(4-Phenethyloxy-phenyl)-ethyl]-[1,4]′bipiperidinyl-3-carboxylic acid ethyl ester]",0.1 µM
7,"O=C(O)C1CCCN(C2CCN(CCc3ccc(OCCc4ccccc4)cc3)CC2)C1 (centres unmarked) [Example 19, 1′-[2-(4-Phenethyloxy-phenyl)-ethyl]-[1,4′]bipiperidinyl-3-carboxylic acid]",0.223 µM
8,"O=C(Oc1ccccc1)Oc1ccc(OCCN2CCCCC2)cc1 [Example 20, Carbonic acid phenyl ester 4-(2-piperidin-1-yl-ethoxy)-phenyl ester]",0.001 µM
9,"O=C(Cc1ccccc1)Oc1ccc(OCCN2CCCCC2)cc1 [Example 21, Phenyl-acetic acid 4-(2-piperidin-1-yl-ethoxy)-phenyl ester]",0.001 µM
10,"CC(C(=O)Oc1ccc(OCCN2CCCCC2)cc1)c1ccccc1 (centres unmarked) [Example 22, 2-Phenyl-propionic acid 4-(2-piperidin-1-yl-ethoxy)-phenyl ester]",0.021 µM
11,"O=C(Oc1ccc(OCCN2CCCCC2)cc1)c1cc2ccccc2[nH]1 [Example 23, 1H-Indole-2-carboxylic acid 4-(2-piperidin-1-yl-ethoxy)-phenyl ester]",0.075 µM
12,"O=C(COc1ccc(CCN2CCC(N3CCCCC3=O)CC2)cc1)c1ccccc1 [Example 26, 1′-{2-[4-(2-Oxo-2-phenyl-ethoxy)-phenyl]-ethyl}-[1,4′]bipiperidinyl-2-one]",0.343 µM
13,"O=C1CCCCN1C1CCN(CCc2ccc(OCC(O)c3ccccc3)cc2)CC1 (centres unmarked) [Example 27, 1′-{2-[4-(2-Hydroxy-2-phenyl-ethoxy)-phenyl]-ethyl}-[1,4′]bipiperidinyl-2-one]",0.004 µM
14,"Oc1cccc(CCOc2ccc(OCCN3CCCCC3)cc2)c1 [Example 28, 3-{2-[4-(2-Piperidin-1-yl-ethoxy)-phenoxy]-ethyl}-phenol]",0.022 µM
15,"N#CC1CCN(CCc2ccc(OCCc3ccccc3)cc2)CC1 [Example 29, 1-[2-(4-Phenethyloxy-phenyl)-ethyl]-piperidine-4-carbonitrile]",0.055 µM
16,"c1ccc(CCOc2ccc(CCN3CCC(c4c[nH]nn4)CC3)cc2)cc1 [Example 31, 1-[2-(4-Phenethyloxy-phenyl)-ethyl]-4-(1H-[1,2,3]triazol-4-yl)-piperidine]",0.033 µM
17,"c1ccc(CCOc2ccc(CCNC3CC3)cc2)cc1 [Example 32, Cyclopropyl-[2-(4-phenethyloxy-phenyl)-ethyl]-amine]",0.177 µM
18,"N#CCCCN(CCc1ccc(OCCc2ccccc2)cc1)C1CC1 [Example 33, 4-{Cyclopropyl-[2-(4-phenethyloxy-phenyl)-ethyl]-amino}-butyronitrile]",0.049 µM
19,"O=C(Nc1ccccc1)Oc1ccc(CCCN2CCC(O)(c3ccccc3)CC2)cc1 [Example 36, Phenyl-carbamic acid 4-[3-(4-hydroxy-4-phenyl-piperidin-1-yl)-propyl]-phenyl ester]",0.005 µM
20,"O=C(Nc1ccccc1)Oc1ccc(CCCN2CCCCC2)cc1 [Example 37, Phenyl-carbamic acid 4-(3-piperidin-1-yl-propyl)-phenyl ester]",0.015 µM
21,"O=C(Nc1ccc(O)cc1)Oc1ccc(OCCN2CCC(O)(c3ccccc3)CC2)cc1 [Example 39, (4—hydroxy-phenyl)-carbamic acid 4-[2-(4-hydroxy-4-phenyl-piperidin-1-yl)-ethoxy]-phenyl ester]",0.0004 µM
22,"CCCC1CCN(CCOc2ccc(OC(=O)Nc3ccccc3)cc2)CC1 [Example 41, Phenyl-carbamic acid 4-[2-(4-propyl-piperidin-1-yl)-ethoxy]-phenyl ester]",0.001 µM
23,"O=C(Nc1ccccc1)Oc1ccc(OCCCN2CCC(O)(c3ccccc3)CC2)cc1 [Example 42, Phenyl-carbamic acid 4-[3-(4-hydroxy-4-phenyl-piperidin-1-yl)-propoxy]-phenyl ester]",0.001 µM
24,"O=C(Nc1ccccc1F)Oc1ccc(OCCN2CCCCC2)cc1 [Example 43, (2-Fluoro-phenyl)-carbamic acid 4-(2-piperidin-1-yl-ethoxy)-phenyl ester]",0.007 µM
25,"O=C(Cc1ccc(OCCN2CCCCC2)cc1)Nc1ccccc1O [Example 44, N-(2—hydroxy-phenyl)-2-[4-(2-piperidin-1-yl-ethoxy)-phenyl]-acetamide]",0.064 µM
26,"O=C(Nc1cccc(Cl)c1)Oc1ccc(OCCN2CCCCC2)cc1 [Example 45, (3-Chloro-phenyl)-carbamic acid 4-(2-piperidin-1-yl-ethoxy)-phenyl ester]",0.064 µM
27,"CCN(CC)CCOc1ccc(OC(=O)Nc2ccccc2)cc1 [Example 46, Phenyl-carbamic acid 4-(2-diethylamino-ethoxy)-phenyl ester]",0.007 µM
28,"CCCN(CCOc1ccc(OC(=O)Nc2ccccc2)cc1)CC1CC1 [Example 49, Phenyl-carbamic acid 4-[2-(cyclopropylmethyl-propyl-amino)-ethoxy]-phenyl ester]",0.004 µM
29,"O=C(Nc1ccccc1)Oc1ccc(OCCN2CCC(Cc3ccccc3)CC2)cc1 [Example 50, Phenyl-carbamic acid 4-[2-(4-benzyl-piperidin-1-yl)-ethoxy]-phenyl ester]",0.021 µM
30,"O=C(Nc1ccccc1)Oc1ccc(OCCN2CCC(O)CC2)cc1 [Example 53, Phenyl-carbamic acid 4-[2-(4-hydroxy-piperidin-1-yl)-ethoxy]-phenyl ester]",0.003 µM
